The target of one assay is MRCKβ (Homo sapiens (Human), UniProt Q9Y5S2). Description: MRCKβ kinase assay (IMAP fluorescence polarization). It counts as biochemical. The note with it: 1 μM ATP; read-out: MRCK-B Average Ki. The text has this:
(§1) MRCKα, MRCKβ, ROCK1 and ROCK2 Kinase Assays

For the next assay, the target named is ROCK1 (Homo sapiens (Human), UniProt Q13464). The settings on record: read-out: ROCK1 Average Ki; 1 μM ATP.
The next assay deals with MRCKα (Homo sapiens (Human), UniProt Q5VT25). Kind of assay: MRCKα kinase assay (IMAP fluorescence polarization). The note with it: 1 μM ATP; read-out: MRCK-a Average Ki. It counts as biochemical.
Sequence of MRCKα (Q5VT25 whole entry): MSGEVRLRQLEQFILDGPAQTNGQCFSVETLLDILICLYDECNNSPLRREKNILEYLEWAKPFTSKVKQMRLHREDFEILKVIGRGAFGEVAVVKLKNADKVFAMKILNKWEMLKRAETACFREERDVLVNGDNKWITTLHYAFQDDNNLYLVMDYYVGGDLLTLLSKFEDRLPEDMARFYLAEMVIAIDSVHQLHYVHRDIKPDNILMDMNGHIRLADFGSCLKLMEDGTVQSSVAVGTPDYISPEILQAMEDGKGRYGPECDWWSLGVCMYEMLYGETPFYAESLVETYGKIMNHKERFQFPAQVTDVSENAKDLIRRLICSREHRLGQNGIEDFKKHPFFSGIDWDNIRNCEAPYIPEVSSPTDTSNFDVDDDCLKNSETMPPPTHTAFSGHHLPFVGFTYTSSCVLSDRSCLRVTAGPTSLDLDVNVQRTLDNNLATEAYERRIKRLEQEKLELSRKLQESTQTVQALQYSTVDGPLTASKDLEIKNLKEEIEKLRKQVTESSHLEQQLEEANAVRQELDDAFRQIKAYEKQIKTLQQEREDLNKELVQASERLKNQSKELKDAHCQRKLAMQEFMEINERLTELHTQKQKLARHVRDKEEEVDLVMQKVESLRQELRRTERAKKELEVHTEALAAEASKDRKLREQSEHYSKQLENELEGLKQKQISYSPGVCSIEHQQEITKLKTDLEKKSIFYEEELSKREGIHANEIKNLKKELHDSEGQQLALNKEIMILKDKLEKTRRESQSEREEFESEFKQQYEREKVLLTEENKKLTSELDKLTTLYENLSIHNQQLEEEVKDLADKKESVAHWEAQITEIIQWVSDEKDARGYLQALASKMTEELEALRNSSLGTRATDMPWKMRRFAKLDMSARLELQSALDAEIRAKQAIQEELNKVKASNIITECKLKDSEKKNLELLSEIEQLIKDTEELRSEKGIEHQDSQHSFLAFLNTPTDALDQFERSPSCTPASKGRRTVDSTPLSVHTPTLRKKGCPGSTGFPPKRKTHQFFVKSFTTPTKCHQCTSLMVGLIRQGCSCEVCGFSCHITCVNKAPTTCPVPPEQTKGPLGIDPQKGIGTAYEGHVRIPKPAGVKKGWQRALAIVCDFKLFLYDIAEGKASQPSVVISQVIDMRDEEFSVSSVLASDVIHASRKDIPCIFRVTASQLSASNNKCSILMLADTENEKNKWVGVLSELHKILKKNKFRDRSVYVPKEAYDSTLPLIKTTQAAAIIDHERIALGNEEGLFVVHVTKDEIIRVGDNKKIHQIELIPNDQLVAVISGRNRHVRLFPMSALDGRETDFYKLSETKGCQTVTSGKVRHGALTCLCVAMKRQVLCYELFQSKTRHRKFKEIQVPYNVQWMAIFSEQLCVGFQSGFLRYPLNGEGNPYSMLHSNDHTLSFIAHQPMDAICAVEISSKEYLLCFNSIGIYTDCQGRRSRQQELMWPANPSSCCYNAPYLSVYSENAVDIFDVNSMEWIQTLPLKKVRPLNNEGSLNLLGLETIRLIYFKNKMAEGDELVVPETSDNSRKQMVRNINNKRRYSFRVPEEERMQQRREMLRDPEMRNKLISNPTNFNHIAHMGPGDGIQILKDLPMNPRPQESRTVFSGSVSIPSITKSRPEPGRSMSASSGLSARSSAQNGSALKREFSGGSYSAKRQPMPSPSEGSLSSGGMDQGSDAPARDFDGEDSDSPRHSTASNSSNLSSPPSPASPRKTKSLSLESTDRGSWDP
From the text: as §1

Another assay concerns the target ROCK2 (Homo sapiens (Human), UniProt O75116). Description: ROCK2 kinase assay (IMAP fluorescence polarization). It counts as biochemical. The note with it: 1 μM ATP; read-out: ROCK2 Average Ki.

Sequence of ROCK2 (O75116 whole entry): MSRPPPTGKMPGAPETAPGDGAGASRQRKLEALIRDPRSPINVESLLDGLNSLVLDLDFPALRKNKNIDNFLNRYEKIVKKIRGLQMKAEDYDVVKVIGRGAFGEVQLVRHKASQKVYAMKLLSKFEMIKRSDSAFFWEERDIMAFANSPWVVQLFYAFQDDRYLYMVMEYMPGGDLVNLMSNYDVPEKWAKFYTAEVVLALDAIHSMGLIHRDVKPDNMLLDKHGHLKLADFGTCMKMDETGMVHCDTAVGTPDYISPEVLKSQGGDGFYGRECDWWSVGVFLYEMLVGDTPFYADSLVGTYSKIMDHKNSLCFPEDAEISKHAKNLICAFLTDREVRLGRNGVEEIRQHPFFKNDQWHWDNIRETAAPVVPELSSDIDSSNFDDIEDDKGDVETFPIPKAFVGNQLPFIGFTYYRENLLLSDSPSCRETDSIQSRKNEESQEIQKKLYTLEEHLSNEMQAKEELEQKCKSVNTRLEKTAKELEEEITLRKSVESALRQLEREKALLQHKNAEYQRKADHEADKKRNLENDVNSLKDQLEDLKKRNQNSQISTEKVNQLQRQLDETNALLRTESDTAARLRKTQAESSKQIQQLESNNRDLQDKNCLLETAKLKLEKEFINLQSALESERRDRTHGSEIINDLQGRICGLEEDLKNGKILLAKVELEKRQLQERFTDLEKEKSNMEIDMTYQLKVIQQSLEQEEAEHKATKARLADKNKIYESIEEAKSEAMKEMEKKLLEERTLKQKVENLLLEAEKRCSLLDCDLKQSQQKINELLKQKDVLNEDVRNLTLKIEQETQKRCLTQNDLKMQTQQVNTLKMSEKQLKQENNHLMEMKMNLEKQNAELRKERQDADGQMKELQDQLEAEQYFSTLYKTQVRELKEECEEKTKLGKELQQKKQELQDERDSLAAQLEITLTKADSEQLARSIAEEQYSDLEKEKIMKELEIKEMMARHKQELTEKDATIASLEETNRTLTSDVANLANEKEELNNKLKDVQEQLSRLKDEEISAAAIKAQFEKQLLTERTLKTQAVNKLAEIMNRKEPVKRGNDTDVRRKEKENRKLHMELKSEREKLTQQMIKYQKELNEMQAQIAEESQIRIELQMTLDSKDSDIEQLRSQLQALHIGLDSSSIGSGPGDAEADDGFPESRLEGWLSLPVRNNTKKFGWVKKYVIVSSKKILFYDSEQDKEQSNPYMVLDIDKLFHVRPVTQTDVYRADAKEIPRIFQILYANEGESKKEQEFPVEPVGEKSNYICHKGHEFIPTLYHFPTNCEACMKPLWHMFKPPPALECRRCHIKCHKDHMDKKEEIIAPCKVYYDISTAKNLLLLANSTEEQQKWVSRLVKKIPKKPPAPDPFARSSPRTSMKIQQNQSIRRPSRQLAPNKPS
Sequence of ROCK1 (Q13464 2-1354 limits assumed): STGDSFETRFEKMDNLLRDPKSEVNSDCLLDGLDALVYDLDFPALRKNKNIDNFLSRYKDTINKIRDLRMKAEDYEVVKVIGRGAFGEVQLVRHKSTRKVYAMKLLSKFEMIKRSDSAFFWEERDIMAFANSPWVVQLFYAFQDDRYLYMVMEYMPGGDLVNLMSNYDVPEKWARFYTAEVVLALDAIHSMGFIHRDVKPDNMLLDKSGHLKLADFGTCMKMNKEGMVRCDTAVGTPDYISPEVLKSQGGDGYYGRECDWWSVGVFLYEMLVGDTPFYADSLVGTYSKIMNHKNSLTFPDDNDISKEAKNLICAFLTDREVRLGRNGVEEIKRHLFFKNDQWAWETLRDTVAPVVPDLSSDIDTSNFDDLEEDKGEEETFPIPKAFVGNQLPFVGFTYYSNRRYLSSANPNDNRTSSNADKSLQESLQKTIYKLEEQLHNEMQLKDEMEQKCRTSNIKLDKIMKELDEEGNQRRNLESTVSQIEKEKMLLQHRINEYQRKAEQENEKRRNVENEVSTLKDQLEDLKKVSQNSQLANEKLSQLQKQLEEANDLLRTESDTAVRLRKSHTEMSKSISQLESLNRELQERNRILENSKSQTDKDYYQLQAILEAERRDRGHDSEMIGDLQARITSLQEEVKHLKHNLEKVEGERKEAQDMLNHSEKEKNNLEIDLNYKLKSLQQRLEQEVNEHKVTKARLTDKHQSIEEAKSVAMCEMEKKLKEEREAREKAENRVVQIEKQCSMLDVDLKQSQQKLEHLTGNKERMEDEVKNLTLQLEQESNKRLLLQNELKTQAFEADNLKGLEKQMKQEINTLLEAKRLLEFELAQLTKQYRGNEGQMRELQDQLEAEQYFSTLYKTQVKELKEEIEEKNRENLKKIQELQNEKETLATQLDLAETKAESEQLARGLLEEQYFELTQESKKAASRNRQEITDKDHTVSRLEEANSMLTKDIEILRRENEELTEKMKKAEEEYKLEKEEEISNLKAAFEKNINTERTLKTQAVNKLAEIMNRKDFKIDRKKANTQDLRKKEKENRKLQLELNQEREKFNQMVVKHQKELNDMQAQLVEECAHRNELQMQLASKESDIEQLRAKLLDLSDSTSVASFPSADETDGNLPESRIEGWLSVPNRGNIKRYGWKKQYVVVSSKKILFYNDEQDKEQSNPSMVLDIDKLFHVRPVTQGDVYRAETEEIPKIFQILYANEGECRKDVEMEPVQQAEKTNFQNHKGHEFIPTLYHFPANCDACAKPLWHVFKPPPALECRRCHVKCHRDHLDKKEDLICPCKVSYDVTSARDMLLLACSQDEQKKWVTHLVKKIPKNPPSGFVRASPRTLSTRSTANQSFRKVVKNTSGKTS

As for `c1cc(-c2c[nH]c3nccc(N4CCC[C@]5(CCCCN5)C4)c23)ncn1` [Example E118, (6R)-8-(3-pyrimidin-4-yl-1H-pyrrolo[2,3-b]pyridin-4-yl)-1,8-diazaspiro[5.5]undecane], the Ki was 1.47 nM at MRCKβ, 50300 nM at ROCK1, 2.89 nM on MRCKα and 299 nM at ROCK2.
In the same order, the values of `c1ncc(-c2c[nH]c3nccc(N4CCCC5(CCCCN5)C4)c23)cn1` (stereo not shown) [Example E196, 8-(3-pyrimidin-5-yl-1H-pyrrolo[2,3-b]pyridin-4-yl)-1,8-diazaspiro[5.5]undecane] are 134000 nM, 213 nM, 5.1 nM and 177 nM.
The like results for `c1ncc(-c2c[nH]c3nccc(N4CCC[C@H](NC5CC5)C4)c23)cn1` [Example E81, (3S)-N-cyclopropyl-1-(3-pyrimidin-5-yl-1H-pyrrolo[2,3-b]pyridin-4-yl)piperidin-3-amine] were, in that order, 3.36 nM, 357 nM, 0.935 nM and 184 nM.
On to `c1ncc(-c2c[nH]c3nccc(OC4CCCNCC4)c23)cn1` (stereo not shown) [Example E216, 4-(azepan-4-yloxy)-3-pyrimidin-5-yl-1H-pyrrolo[2,3-b]pyridine], for which the Ki at MRCKβ worked out at 1.78 nM; at ROCK1, 66.8 nM; at MRCKα, 1.13 nM; at ROCK2, 55.8 nM.
In the same order, the values of `CN[C@H]1CCCN(c2ccnc3[nH]cc(-c4cncnc4)c23)C1` [Example E57, (3S)-N-methyl-1-(3-pyrimidin-5-yl-1H-pyrrolo[2,3-b]pyridin-4-yl)piperidin-3-amine] are 2.34 nM, 50700 nM, 2.93 nM and 545 nM.
In the same order, the values of `N#Cc1c[nH]c2nccc(N3CCCC3)c12` [Example E36, 4-pyrrolidin-1-yl-1H-pyrrolo[2,3-b]pyridine-3-carbonitrile] are 78.9 nM, 90.6 nM, 82.1 nM and 65.8 nM.
In the same order, the values of `Cc1cnc2[nH]cc(-c3cn[nH]c3)c2c1N1CCCCC1` [Example E2, 5-methyl-4-(1-piperidyl)-3-(1H-pyrazol-4-yl)-1H-pyrrolo[2,3-b]pyridine] are 36.4 nM, 207 nM, 19.7 nM and 102 nM.
Turning to `CNc1ccnc2[nH]cc(C#N)c12` [Example E37, 4-(methylamino)-1H-pyrrolo[2,3-b]pyridine-3-carbonitrile], the Ki on MRCKβ came out at 39.9 nM; on ROCK1, 43.8 nM; on MRCKα, 125 nM; on ROCK2, 30.3 nM.
Take `CN(C)[C@H]1CCCN(c2ccnc3[nH]cc(-c4cncnc4)c23)C1` [Example E82, (3S)-N,N-dimethyl-1-(3-pyrimidin-5-yl-1H-pyrrolo[2,3-b]pyridin-4-yl)piperidin-3-amine]: the Ki on MRCKβ was determined as 13.1 nM; at ROCK1 it was 648 nM; on MRCKα it was 17.2 nM; on ROCK2, 362 nM.
In the same order, the values of `c1ncc(-c2c[nH]c3nccc(N4CCC5(CCCNC5)CC4)c23)cn1` [Example E193, 9-(3-pyrimidin-5-yl-1H-pyrrolo[2,3-b]pyridin-4-yl)-2,9-diazaspiro[5.5]undecane] are 0.969 nM, 22.3 nM, 0.217 nM and 15.2 nM.
The like results for `CCN[C@H]1CCCN(c2ccnc3[nH]cc(-c4cnn(C)c4)c23)C1` [Example E78, (3S)-N-ethyl-1-[3-(1-methylpyrazol-4-yl)-1H-pyrrolo[2,3-b]pyridin-4-yl]piperidin-3-amine] were, in that order, 8.51 nM, 105 nM, 3.48 nM and 61.5 nM.
In the case of `c1cc(-c2c[nH]c3nccc(N4CCCCC4)c23)[nH]n1` [Example E181, 4-(1-piperidyl)-3-(1H-pyrazol-5-yl)-1H-pyrrolo[2,3-b]pyridine], the Ki was found to be 9.45 nM at MRCKβ, 25 nM at ROCK1, 9.1 nM at MRCKα and 15.4 nM at ROCK2.
In the same order, the values of `c1ncc(-c2c[nH]c3nccc(N4CCCC5(CCCN5)C4)c23)cn1` (stereo not shown) [Example E195, 9-(3-pyrimidin-5-yl-1H-pyrrolo[2,3-b]pyridin-4-yl)-1,9-diazaspiro[4.5]decane] are 3.27 nM, 332 nM, 4.69 nM and 174 nM.
The like results for `c1ncc(-c2c[nH]c3nccc(N4CCC[C@H](N5CCCC5)C4)c23)cn1` [Example E99, 3-pyrimidin-5-yl-4-[(3S)-3-pyrrolidin-1-yl-1-piperidyl]-1H-pyrrolo[2,3-b]pyridine] were, in that order, 3.81 nM, 1680 nM, 5.8 nM and 603 nM.
Regarding `c1cnc(-c2c[nH]c3nccc(N4CCCC5(CCCCN5)C4)c23)nc1` (stereo not shown) [Example E157, 8-(3-pyrimidin-2-yl-1H-pyrrolo[2,3-b]pyridin-4-yl)-1,8-diazaspiro[5.5]undecane], the Ki at MRCKβ worked out at 1.04 nM; on ROCK1, 100000 nM; on MRCKα it was 1.34 nM; on ROCK2, 100000 nM.
On to `CCN[C@H]1CCCN(c2ccnc3[nH]cc(-c4cncnc4)c23)C1` [Example E79, (3S)-N-ethyl-1-(3-pyrimidin-5-yl-1H-pyrrolo[2,3-b]pyridin-4-yl)piperidin-3-amine], for which the Ki at MRCKβ worked out at 2.27 nM; on ROCK1, 50700 nM; at MRCKα, 1.23 nM; on ROCK2, 448 nM.
The like results for `c1cncc(-c2c[nH]c3nccc(N4CCCCC4)c23)c1` [Example E182, 4-(1-piperidyl)-3-(3-pyridyl)-1H-pyrrolo[2,3-b]pyridine] were, in that order, 18.8 nM, 132 nM, 9 nM and 90 nM.
In the same order, the values of `CN[C@H]1CCCN(c2ccnc3[nH]cc(-c4cnn(C)c4)c23)C1` [Example E55, (3S)-N-methyl-1-[3-(1-methylpyrazol-4-yl)-1H-pyrrolo[2,3-b]pyridin-4-yl]piperidin-3-amine] are 7.31 nM, 301 nM, 18.9 nM and 129 nM.
For the compound `c1ncc(-c2c[nH]c3nccc(N4CCC[C@H](N5CCC5)C4)c23)cn1` [Example E97, 4-[(3S)-3-(azetidin-1-yl)-1-piperidyl]-3-pyrimidin-5-yl-1H-pyrrolo[2,3-b]pyridine], the Ki on MRCKβ came to 3.93 nM; at ROCK1, 686 nM; at MRCKα it was 5.2 nM; on ROCK2 it was 366 nM.
With `CN(C)c1ccnc2[nH]cc(C#N)c12` [Example E31, 4-(dimethylamino)-1H-pyrrolo[2,3-b]pyridine-3-carbonitrile], the Ki on MRCKβ turned out to be 16.7 nM; on ROCK1, 43.6 nM; on MRCKα, 47.9 nM; at ROCK2 it was 24.1 nM.
In the same order, the values of `C[C@H]1CCCN1c1ccnc2[nH]cc(C#N)c12` [Example E111, 4-[(2S)-2-methylpyrrolidin-1-yl]-1H-pyrrolo[2,3-b]pyridine-3-carbonitrile] are 39.7 nM, 85.2 nM, 123 nM and 25.5 nM.
Take `FC1CCN([C@H]2CCCN(c3ccnc4[nH]cc(-c5cncnc5)c34)C2)C1` (stereo partly drawn) [Example E95, 4-[(3S)-3-(3-fluoropyrrolidin-1-yl)-1-piperidyl]-3-pyrimidin-5-yl-1H-pyrrolo[2,3-b]pyridine]: the Ki came out at 6.98 nM on MRCKβ, 689 nM on ROCK1, 19.4 nM on MRCKα and 395 nM on ROCK2.
The like results for `N[C@H]1CCCN(c2ccnc3[nH]cc(-c4cncnc4)c23)C1` [Example E69, (3S)-1-(3-pyrimidin-5-yl-1H-pyrrolo[2,3-b]pyridin-4-yl)piperidin-3-amine] were, in that order, 2.72 nM, 460 nM, 4.5 nM and 274 nM.
The like results for `CNC1CCCN(c2ccnc3[nH]cc(-c4cncnc4)c23)CC1` (stereo not shown) [Example E68, N-methyl-1-(3-pyrimidin-5-yl-1H-pyrrolo[2,3-b]pyridin-4-yl)azepan-4-amine] were, in that order, 1.09 nM, 55.9 nM, 0.382 nM and 36.9 nM.
Regarding `c1cnnc(-c2c[nH]c3nccc(N4CCCC5(CCCCN5)C4)c23)c1` (stereo not shown) [Example E175, 8-(3-pyridazin-3-yl-1H-pyrrolo[2,3-b]pyridin-4-yl)-1,8-diazaspiro[5.5]undecane], the Ki was determined as 1.5 nM at MRCKβ, 1860 nM on ROCK1, 0.257 nM on MRCKα and 547 nM at ROCK2.
The like results for `c1cc(N2CCCCC2)c2c(-c3cn[nH]c3)c[nH]c2n1` [Example E183, 4-(1-piperidyl)-3-(1H-pyrazol-4-yl)-1H-pyrrolo[2,3-b]pyridine] were, in that order, 6.03 nM, 31 nM, 12.6 nM and 12.3 nM.
The like results for `c1ncc(-c2c[nH]c3nccc(N4CCC[C@H](N5CCCCC5)C4)c23)cn1` [Example E98, 4-[(3S)-3-(1-piperidyl)-1-piperidyl]-3-pyrimidin-5-yl-1H-pyrrolo[2,3-b]pyridine] were, in that order, 4.24 nM, 2530 nM, 7.9 nM and 979 nM.
In the same order, the values of `c1cnc(-c2c[nH]c3nccc(N4CCCC5(CCCCN5)C4)c23)cn1` (stereo not shown) [Example E189, 8-(3-pyrazin-2-yl-1H-pyrrolo[2,3-b]pyridin-4-yl)-1,8-diazaspiro[5.5]undecane] are 1.31 nM, 643 nM, 0.131 nM and 167 nM.
